Laboratory results reported in patent publication US8790712B2, “Constitutional function-improving agents” (Cosmo Oil Co., Ltd., priority 2004, dated 2014).

Tests used:
Type in all cases: in vivo, mouse
ALA dehydrase (ALAD) = assay: ALAD activity of blood (Example 5); conditions: male mice, 10 mg/kg orally once a day for 7 days
Experimental: Mice (35 to 45 weeks old, BALB/cAJc1) preliminary raised for 1 week were injected with 10 mg of ALA hydrochloride per 1 kg mouse body weight once a day for 7 days continuously. ALA hydrochloride was adjusted to a concentration of […] with distilled water and orally administered to the mice. After the test, each mouse was sacrificed to collect mouse blood, and ALA dehydrase (ALAD) activity (the activity of ALA in which it is dimerized and thereby forms porphobilinogen (hereinafter referred to as “PBG”) as one molecule pyrrole substance) and porphobilinogen deaminase (PBGD) activity (the activity to convert from PBG to hydroxymethylbilane) per 1 ml of the blood were measured. […] To 0.02 ml of heparin-treated mouse whole blood, 0.33 ml of distilled water was added, the mixture was adjusted to a total volume of 0.5 ml by adding thereto 0.05 ml of 0.5 M Na-phosphate buffer (pH 6.4), 0.05 ml of 0.1 M DTT (containing 1 mM ZnSO4) and 0.05 ml of 50 mM ALA hydrochloride and was kept at 37° C. for 30 minutes, the reaction was stopped by adding 0.5 ml of 1 M trichloroacetic acid, and then Ehrlich reagent was added to a supernatant after centrifugation at 3000 rpm in the same volume, and precisely 10 minutes thereafter, absorbance at 553 nm, which is a characteristic absorbance of the compound formed by the reaction of Ehrlich reagent with PBG, was measured (OD) using a spectrophotometer. […]

[1] = system: Mice (35 to 45 weeks old, BALB/cAJc1); assay: Migration distance in cage for 5 minutes (Example 4); conditions: 10 mg/kg orally once a day for 7 days; for Exercise quantity (m): migration distance in 5 minutes
Experimental: Mice (35 to 45 weeks old, BALB/cAJc1) preliminary raised for 1 week were injected with 10 mg of ALA hydrochloride per 1 kg mouse body weight once a day for 7 days continuously. ALA hydrochloride was adjusted to a concentration of 0.5 g/ml with distilled water and orally administered to the mice. After the test, the mouse was put into a cage of 20 cm×20 cm in floor area, and its migration distance was measured for 5 minutes. The test was carried out using 5 male and 5 female mice, a total of 10 animals, for each plot, and the values were shown by average value. It was confirmed that the migration distance is long and the capacity for locomotion is improved in both cases of male and female in the ALA-treated plot.

CD4-CD8+ cells = assay: Subset test of lymphocytes from thymus (Example 2); conditions: 10 mg/kg orally once a day for 7 days
Experimental: (§1) Mice (35 to 45 weeks old, BALB/cAJc1) preliminary raised for 1 week were injected with 10 mg of ALA hydrochloride per 1 kg mouse body weight once a day for 7 days continuously. ALA hydrochloride was adjusted to a concentration of […] with distilled water and orally administered to the mice. After the test, each mouse was sacrificed and the weight of its thymus and the number of cells were measured. In addition, a subset test of lymphocytes was carried out using the obtained cells. The test was carried out using 5 mice per 1 plot, and their values were shown by average value. […] Also, since the cell of CD4-CD8+ was increased in the ALA-treated plot based on the subset test, it was confirmed that the cytotoxic T cell increases after its future differentiation, so that its immunological function improving ability was shown (Table 3). In addition, photographs of the thymus of untreated plot (un-administered group) and the thymus of ALA-treated plot (ALA-treated group) are shown in FIG. 1.

[2] = system: superoxide dismutase (SOD); assay: SOD activity of thymus tissue (Example 3); conditions: 10 mg/kg orally once a day for 7 days
Experimental: Mice (35 to 45 weeks old, BALB/cAJc1) preliminary raised for 1 week were injected with 10 mg of ALA hydrochloride per 1 kg mouse body weight once a day for 7 days continuously. ALA hydrochloride was adjusted to a concentration of […] with distilled water and orally administered to the mice. After the test, each mouse was sacrificed and the thymus of mouse was collected to measure superoxide dismutase (SOD) activity of its tissue. To the collected thymus, 1.0 ml of 0.25 M sucrose solution was added, and the mixture homogenized and then centrifuged at 10,000 G for 10 minutes, and the resulting supernatant solution was used as the enzyme solution. The measurement was carried out using an emission reagent for antioxidant ability measurement, MPEC (2-methyl-6-p-methoxyphenylethynylimidazopyrazinone) (manufactured by Atto Corp.). That is, 250 μl of a reaction solution containing 125 μl of 0.1 M potassium phosphate buffer (pH 7.5), 10 μl of the enzyme liquid, 60 μl of 0.1 unit/ml xanthine oxidase, 45 μl of distilled water and 10 μl of 0.3 mM MPEC was dispensed into Luminescencer-PSN (manufactured by Atto Corp.), 50 μl of 0.72 mM hypoxanthine (pH 7.5) was added for emission. For the calculation of emission inhibition ratio, the buffer was used instead of the enzyme liquid. For the calculation, a calibration curve was prepared using standard SOD, and the concentration calculation was carried out using this.
The test was carried out using 5 male and 5 female mice, a total of 10 animals, for each plot, and the values were shown by average value. It was confirmed that the SOD activity or GPx activity is improved in both cases of male and female in the ALA-treated plot.

thymus cells = assay: Thymus weight and number of thymus cells of aged mice (Example 2); conditions: 10 mg/kg orally once a day for 7 days; for The number of cells: thymus
Experimental: as §1

In the case of `NCC(=O)CCC(=O)O` [ALA, 5-aminolevulinic acid], the ALAD activity (ALA dehydrase (ALAD)) is reported as 1.76 μmol PBG/ml RBC/h, the “Symptoms such as abnormal stimulation and action” value ([1]; ALA-treated mice during the test) is reported as “symptoms such as abnormal stimulation and action were not observed” and the “Exercise quantity (m)” value ([1]; female mice) is reported as 25.5 m. For the same compound, the “Exercise quantity (m)” value ([1]; male mice) was 41 m, the “CD4−CD8+ (%)” value (CD4-CD8+ cells; female mice) was 3.25% and the “CD4−CD8+ (%)” value (CD4-CD8+ cells; male mice) was 5.55%. For the same compound, the SOD activity ([2]; female mice) was 30.7 U/ml, the “Total SOD activity” value ([2]; female mice) was 31.84 U/organ and the SOD activity ([2]; male mice) was 20.2 U/ml. The “Total SOD activity” value ([2]; male mice) was 20.95 U/organ, the “Thymus” value (thymus cells; female mice) was 0.044 g and the “Thymus” value (thymus cells; male mice) was 0.034 g. The “The number of cells” value (thymus cells; female mice) was 49.9 × 10^6 and the “The number of cells” value (thymus cells; male mice) was 22.0 × 10^6.
